What was measured:
Assay type in all cases: physicochemical
[1] = Bulk and tap density of the solid salt
Procedure: (§1) 27.22 g of freebase alpha-6-mPEG6-O-hydroxycodone was added to a 250 mL jacketed flask. The flask was equipped with a nitrogen inlet, mechanical stirrer and temperature probe connected to a digital read-out. 163 mL of tBME (methyl tert-butyl ether):heptane (5:1 vol:vol) was added to make a homogeneous solution at 15° C. Aqueous phosphoric acid (3103 μL of 85+%) was added over 1 hr at 10 minutes intervals. During the first addition, the initially formed solids were long strings and agitation helped to transform fine solid in matter of seconds. Exothermic temperature spikes occurred; the range of these increases was 8-10° C. observed during the initial 5 added portions. During the 6th and 7th added portion the temperature spike was reduced substantially to increments of a Celsius degree. After 2 hours the slurry was filtered. The filtration rate was instantaneous with no solvent retention. The wet cake was washed with 90 mL tBME (2×45 mL) and set to dry at ambient temperature overnight inside a vacuum oven. The isolated 30.57 g of white solid (96.5% isolated yield) was filtered. The solid after delumping with spatula was free flowing. The % LOD of the wet cake was at 43.2%. HPLC purity was at 98.6%. Bulk density was 0.3276 g/mL, tap density was 0.3931 g/mL, and the Hausner ratio was 1.20. XRPD conformed to the salt prepared according to Example 3. FIG. 16 depicts various XRPD scans for the salt prepared according to Example 7 on a 30 g, 100 g, and 520 g scale and a salt prepared according to Example 3 on a 100 g scale. XRPD patterns were obtained using a Bruker D8 Advance equipped with a Cu Kα radiation source (1.54 Å), a 9-position sample holder and a LYNXEYE Super Speed Detector. Typically, the duration of each scan was 180 seconds and the 2θ range was 4 to 40°. Samples were placed on zero-background, silicon plate holders. DSC data were collected using a TA Instruments Q10 DSC. Typically, samples (˜2 mg) were placed in hermetic alodined aluminum sample pans and scanned from 30 to 350° C. at a rate of 10° C./min under a nitrogen purge of 50 mL/min. A Malvern Hydro 2000 SM (A) Mastersizer was used for particle size analysis data using a generic method. Ethyl acetate was used as the dispersant, with a pump speed of 2000 rpm, obstruction of 10-15%. The addition style included direct addition of the solid to the dispersant until desired obstruction is achieved. The number of measurements was a minimum of two. For PSD analysis, a sample was taken from the bulk of the solid. FIGS. 13, 14, and 15 are plots of the PSD analysis for the 30 g, 100 g, and 520 g lots respectively.

Water vapor sorption = details: phosphate salt
Procedure: Moisture sorption/desorption data were collected on a VTI SGA-1 00 Vapor Sorption Analyzer. Sorption and desorption data were collected over a range of 5% to 95% relative humidity (RH) at 10% RH intervals under a nitrogen purge. Samples were not dried prior to analysis. Equilibrium criteria used for analysis were less than 0.0100% weight change in 5 minutes, with a maximum equilibration time of 3 hours if the weight criterion was not met. Data were not corrected for the initial moisture content of the samples. NaCl and PVP were used as calibration standards.

[2] = Particle size distribution (Malvern Mastersizer); details: ethyl acetate dispersant; phosphate salt
Procedure: as §1

[3] = Description of the isolated solid (hygroscopicity); details: after drying under vacuum at ambient temperature
Procedure: A solution of α-6-mPEG6-O-hydroxycodone was prepared in a mixture of methanol and tert-butyl methyl ether (2:1, 2 volumes) at 30° C. A solution of phosphoric acid (85% aqueous, 1.05 eq) was prepared in a mixture of methanol and tert-butyl methyl ether (2:1, 1.2 volumes) at 20° C. The solutions were combined, maintaining a temperature of 30-50° C., resulting in the formation of dissolved α-6-mPEG6-O-hydroxycodone phosphate. This salt solution was adjusted to 40° C., and gradually transferred over the course of 1-3 hours into a solution of heptanes and tert-butyl methyl ether (4:1, 14 volumes) maintained at 45° C. During the transfer, α-6-mPEG6-O-hydroxycodone phosphate precipitated from the combined streams. The resulting slurry was cooled to 20° C. and agitation was ceased, permitting the solids to settle. The supernate was decanted, and heptanes (6 volumes) were added to the solids. The solids were slurried for at least one hour at 30° C., after which the slurry was cooled to 20° C. Again agitation was ceased, the solids were allowed to settle, and the supernate was decanted. Fresh heptanes were added to the solids, which were again slurried for at least one hour at 30° C. The slurry was cooled to 20° C., filtered, and washed with fresh heptanes (2 volumes). […] The solid form prepared according to this Example has a melting point in the range of about 175-177° C. […]

[4] = listed as Alpha 6-mPEG6-O-Hydroxycodone Phosphate Salt

Row | Compound | Bulk Density ([1]; phosphate salt) | Hausner ratio ([1]; phosphate salt) | Tap Density ([1]; phosphate salt) | Water Vapor Sorption (gain between 0-50% RH) (Water vapor sorption) | Particle Size Distribution DV[10] [2] | Particle Size Distribution DV[50] [2] | Particle Size Distribution DV[90] [2] | nature of the isolated solid [3] | Bulk Density [1, 4] | Hausner ratio [1, 4] | Tap Density [1, 4]
1 | COCCOCCOCCOCCOCCOCCO[C@H]1CC[C@@]2(O)[C@H]3Cc4ccc(OC)c5c4[C@@]2(CCN3C)[C@H]1O5.O=P(O)(O)O [30 g Lot, α-6-mPEG6-O-hydroxycodone phosphate salt] | 0.33 g/mL | 1.18 | 0.39 g/mL | 4.2% | DV[10] = 7 μm | DV[50] = 47 μm | DV[90] = 92 μm |  |  |  | 
2 | COCCOCCOCCOCCOCCOCCO[C@H]1CC[C@@]2(O)[C@H]3Cc4ccc(OC)c5c4[C@@]2(CCN3C)[C@H]1O5.O=P(O)(O)O [100 g Lot, α-6-mPEG6-O-hydroxycodone phosphate salt] | 0.37 g/mL | 1.30 | 0.48 g/mL | 4.1% | DV[10] = 9 μm | DV[50] = 53 μm | DV[90] = 109 μm |  |  |  | 
3 | COCCOCCOCCOCCOCCOCCO[C@H]1CC[C@@]2(O)[C@H]3Cc4ccc(OC)c5c4[C@@]2(CCN3C)[C@H]1O5.O=P(O)(O)O [520 g Lot, α-6-mPEG6-O-hydroxycodone phosphate salt] | 0.39 g/mL | 1.25 | 0.49 g/mL | 4.2% | DV[10] = 7 μm | DV[50] = 47 μm | DV[90] = 93 μm |  |  |  | 
4 | COCCOCCOCCOCCOCCOCCO[C@H]1CC[C@@]2(O)[C@H]3Cc4ccc(OC)c5c4[C@@]2(CCN3C)[C@H]1O5.O=C(O)C(O)C(O)C(=O)O [α-6-mPEG6-O-hydroxycodone D-tartrate] |  |  |  |  |  |  |  | deliquescent white powder |  |  | 
5 | COCCOCCOCCOCCOCCOCCO[C@H]1CC[C@@]2(O)[C@H]3Cc4ccc(OC)c5c4[C@@]2(CCN3C)[C@H]1O5.O=P(O)(O)O [α-6-mPEG6-O-hydroxycodone phosphate] |  |  |  |  |  |  |  | slightly waxy, hygroscopic powder | 0.3276 g/mL | 1.20 | 0.3931 g/mL

— patent US9682988B2, “Solid salt form of α-6-mPEG6-O-hydroxycodone as opioid agonists and uses thereof” (Nektar Therapeutics, priority 2012, dated 2017)
